From patent US20250295668A1, “METHODS FOR INDUCING COLANIC ACID BIOSYNTHESIS” (priority 2024, published 2025)

How the values were obtained:
cps operon = assay: Disk diffusion assay for cps induction, SG20781 cpsB::lacZ reporter; assay type: cell-based, E. coli; conditions: SG20781, filter paper disks 10 or 100 μg, 24 hours at 37° C.
Method: For antibiotic screening targeting cps expression, the SG20781 strain (MC4100 lon+cpsB10::lacZ Mu-immλ) was used. The bacteria were cultured overnight at 37° C. in Luria-Broth (LB) medium and evenly plated on X-gal (40 μg/mL) supplemented LB agar plates, and incubated overnight.
E. coli strain SG20781 was used to assess antibiotic cps induction via disk diffusion as previously described [PMID: 14553918]. In brief, an overnight bacteria culture was spread onto LB agar containing 0.1 mg ml-1 5-bromo-4-chloro-3-indolyl-β-D-galactoside (X-gal). […] The soaked filter papers were placed onto the bacteria-seeding plates and incubated for 24 hours at 37° C.
Certain β-lactam antibiotics trigger the overexpression of the cps operon in E. coli [PMID: 14553918]. To validate this finding, a disk diffusion assay was performed using SG20781, an E. coli strain that harbors a LacZ reporter for the cps operon transcriptional regulation. Using a colorimetric assay, an increased level of […] reacts with X-gal, resulting in an intensified blue coloration as a result of the transcriptional up-regulation of the cps operon.

PBP4 = PBP4 (Escherichia coli, UniProt P24228); conditions: literature, PMID 25733506; cited from earlier work
wildtype E. coli = assay: Colanic acid measurement (fucose quantification) in wildtype E. coli culture medium; assay type: cell-based
Method: For colanic acid quantification, E. coli Keio mutants and the parental strain BW25113 were cultured overnight at 37° C. in M9 minimum medium [PMID: 28436966]. Bacteria were then removed by centrifugation and filtered for colanic acid measurement.
The desired bacterial strain was first inoculated and cultured in M9 minimum medium overnight at 37° C. to obtain the seeding culture. The OD 600 was measured, and the seeding bacteria were diluted to OD600=0.02 in M9 minimum medium for another 16 hours. After the incubation, bacterial cultures were collected in 50 mL tubes, spun down at 4,000 g at 4° C. for 30 min, filtered, and 25 mL of supernatant was collected per 50 ml conical tube. Ice-cold 100% ethanol (EtOH) was added to make a final 50% EtOH solution for precipitation, and the mixture was kept at 4° C. overnight. Once precipitation occurred, the liquid was carefully removed after centrifugation at 4,000 g at 4° C. for 50 min. The pellet was washed once with cold 80% EtOH and then air-dried in a hood. The pellet from every 50 mL culture was resuspended in 500 μL distilled H2O. The solution was sonicated for 60 minutes at 37° C., followed by centrifugation at 4000 g at 4° C. for 10 minutes. A 200 μL sample was mixed with 30 μL hydrochloric acid (320331-500 mL, Sigma-Aldrich) and boiled for 2 hours. Subsequently, 60 μL 5M NaOH and 150 μL NaHCO3/NaOH buffer were added to reach a pH of 6-8, calibrated by 1M HCl or NaOH solutions. The fucose quantification assay was then carried out using a K-FUCOSE kit (Megazyme) according to the manufacturer's protocol.
Next, colanic acid in the bacteria culture medium was quantified via monosaccharide-fucose-from acid-hydrolyzed polysaccharide precipitates. […] Calculations were performed to determine the equivalent dosage by weight in a mammalian subject. Briefly, a typical mouse consumes 5-10 ml of water per day and weighs between 30-40 g. Using the 1.8 μg/mL concentration, a lower bound of 0.225 mg/kg (0.0018 mg/mL×5 ml[…]0.04 kg) and a higher bound of 0.6 mg/kg (0.0018 mg/mL×10 ml÷0.03 kg) were identified. […] In wild-type bacteria treated with cephaloridine and Alon E. coli mutants colanic acid production increased during the exponential growth phase and remained elevated in the stationary phase (FIG. 1D).

SMILES	cps induction (blue coloration) (cps operon)	affinity for PBP4 (PBP4)	colanic acid production vs untreated wildtype control (wildtype E. coli; cephalothin 0.625 μg/mL) [fold]	colanic acid production vs untreated wildtype control (wildtype E. coli; penicillin G 5 μg/mL) [fold]
CC1(C)S[C@@H]2[C@H](NC(=O)[C@H](N)c3ccccc3)C(=O)N2[C@H]1C(=O)O [ampicillin]	promote various shades of blue coloration	higher affinity for PBP4		
Cc1nnc(SCC2=C(C(=O)O)N3C(=O)[C@@H](NC(=O)Cn4cnnn4)[C@H]3SC2)s1 [cefazolin]	promote various shades of blue coloration			
CC(=O)OCC1=C(C(=O)O)N2C(=O)[C@@H](NC(=O)Cc3cccs3)[C@H]2SC1 [cephalothin]	promote various shades of blue coloration		3.5	
CC1(C)S[C@@H]2[C@H](NC(=O)C(C(=O)O)c3ccccc3)C(=O)N2[C@H]1C(=O)O (stereo partly shown) [carbenicillin]	promote various shades of blue coloration			
CO/N=C(\C(=O)N[C@@H]1C(=O)N2C(C(=O)O)=C(COC(N)=O)CS[C@H]12)c1ccco1 [cefuroxime]	promote various shades of blue coloration			
CC1(C)S[C@@H]2[C@H](NC(=O)Cc3ccccc3)C(=O)N2[C@H]1C(=O)O [penicillin G]	promote various shades of blue coloration	higher affinity for PBP4		3.25
